Each structure is given as a SMILES string.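 All cell lines were grown in 96-well plates and treated with compound for 48 hours. GI50: concentration for 50% inhibition of growth. TGI: concentration producing complete growth inhibition.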

Test systems include EKVX NSCLC; HL-60(TB) leukemia; HT29 colon; K-562 leukemia; OVCAR-5 ovarian; SF-295 CNS; SK-MEL-5 melanoma; SNB-19 CNS; T-47D breast.
Holding throughout (test): NCI-60 cell line screen, 48 h

In the case of `CCOC(=O)C(NC(=O)c1cccc(Cl)c1)(N1CCN(c2cc3c(cc2F)c(=O)c(C(=O)O)cn3CC)CC1)C(F)(F)F` (stereo not drawn), the TGI in the experiment on EKVX NSCLC is 68.3 µM; with HL-60(TB) leukemia, 20.1 µM; in the experiment with HT29 colon, 42.5 µM; with K-562 leukemia, 52 µM; with OVCAR-5 ovarian, 33 µM; in the experiment with SF-295 CNS, 40 µM. The figures for the TGI in the experiment with SK-MEL-5 melanoma, in the experiment on SNB-19 CNS and in the experiment on T-47D breast were 27.2 µM, more than 100 µM and 51.4 µM, respectively.

Regarding `O=C(Cn1c(-c2ccccc2)cc2ccccc21)N1CCOCC1`, the TGI in the experiment with EKVX NSCLC, in the experiment on HL-60(TB) leukemia, with HT29 colon, in the experiment on K-562 leukemia, in the experiment with OVCAR-5 ovarian and in the experiment on SF-295 CNS was more than 100 µM throughout. The TGI in the experiment on SK-MEL-5 melanoma, in the experiment with SNB-19 CNS and with T-47D breast was more than 100 µM throughout.

In the case of `Nc1nc2c(ccc3ccccc32)[nH]1`, the TGI in the experiment with EKVX NSCLC, in the experiment with HL-60(TB) leukemia, with HT29 colon, in the experiment with K-562 leukemia, with OVCAR-5 ovarian and with SF-295 CNS was more than 10 µM throughout. Also, the TGI with SK-MEL-5 melanoma, in the experiment on SNB-19 CNS and in the experiment on T-47D breast was more than 10 µM in each case.

In the case of `N/N=C(\N)SCc1ccc(N=C=S)cc1`, the TGI in the experiment on EKVX NSCLC, in the experiment with HL-60(TB) leukemia, in the experiment with HT29 colon, in the experiment on K-562 leukemia, in the experiment with OVCAR-5 ovarian and in the experiment on SF-295 CNS was more than 100 µM throughout. In addition, the TGI in the experiment on SK-MEL-5 melanoma, in the experiment on SNB-19 CNS and in the experiment with T-47D breast was more than 100 µM each time.

On to `CN(C)c1ccc(/C=C2\CCCCCC2=O)cc1`, for which the TGI in the experiment with EKVX NSCLC, in the experiment with HL-60(TB) leukemia, in the experiment with HT29 colon, with K-562 leukemia, in the experiment with OVCAR-5 ovarian and in the experiment on SF-295 CNS was more than 100 µM each time. Further, the TGI with SK-MEL-5 melanoma, with SNB-19 CNS and with T-47D breast was more than 100 µM each time.

Turning to `Cc1cc(N(CCCl)CCCl)ccc1/C=N\NC(=O)c1cccnc1`, the GI50 in the experiment on EKVX NSCLC is 48.8 µM; in the experiment with HL-60(TB) leukemia, 4.3 µM; in the experiment with HT29 colon, 30.3 µM; in the experiment on K-562 leukemia it was 20.1 µM; in the experiment on OVCAR-5 ovarian, 12 µM; with SF-295 CNS, 4.17 µM. In addition, the values for the GI50 in the experiment with SK-MEL-5 melanoma, with SNB-19 CNS and in the experiment with T-47D breast were 15.7 µM, more than 100 µM and 6.41 µM, respectively. The TGI is more than 100 µM in the experiment on EKVX NSCLC; 26.4 µM in the experiment with HL-60(TB) leukemia; more than 100 µM with HT29 colon; more than 100 µM with K-562 leukemia; 60 µM in the experiment with OVCAR-5 ovarian; 28.3 µM in the experiment with SF-295 CNS. The TGI is 39.1 µM in the experiment with SK-MEL-5 melanoma, more than 100 µM in the experiment with SNB-19 CNS and 50.2 µM in the experiment with T-47D breast.

Take `O=C1Cc2c(-c3ccccc3)cc(-c3ccc(Cl)cc3)nc2-c2ccccc2N1`: the TGI with EKVX NSCLC is more than 43.6 µM; with HL-60(TB) leukemia, more than 100 µM; with HT29 colon it was more than 46.8 µM; with K-562 leukemia it was more than 100 µM; in the experiment on OVCAR-5 ovarian, more than 83.7 µM; in the experiment with SF-295 CNS, 23.7 µM. For the same molecule, the TGI in the experiment on SK-MEL-5 melanoma was 17 µM; in the experiment on SNB-19 CNS, 6.35 µM; with T-47D breast, 17.8 µM.

In the case of `Cc1nnc(N)s/c1=N/O`, the TGI in the experiment with EKVX NSCLC, with HL-60(TB) leukemia, with HT29 colon, in the experiment with K-562 leukemia, in the experiment on OVCAR-5 ovarian and with SF-295 CNS was more than 100 µM throughout. Further, the TGI in the experiment with SK-MEL-5 melanoma, with SNB-19 CNS and in the experiment with T-47D breast was more than 100 µM throughout.

As for `CNc1nc(OC)c2c(n1)[n+](C)cn2C`, the TGI in the experiment with EKVX NSCLC, with HL-60(TB) leukemia, in the experiment with HT29 colon, in the experiment on K-562 leukemia, in the experiment on OVCAR-5 ovarian and in the experiment on SF-295 CNS was more than 100 µM in each case. The TGI in the experiment with SK-MEL-5 melanoma, in the experiment on SNB-19 CNS and with T-47D breast was more than 100 µM each time.

Turning to `O=C1CSC(c2cccc(Oc3ccccc3)c2)N1c1cc(Cl)ccc1Cl` (stereo not drawn), the TGI was 80.9 µM with EKVX NSCLC; more than 100 µM in the experiment with HL-60(TB) leukemia; 50.5 µM in the experiment on HT29 colon; 50.1 µM in the experiment on K-562 leukemia; 76.9 µM in the experiment with OVCAR-5 ovarian; 55.3 µM in the experiment with SF-295 CNS. For the same molecule, the results for the TGI in the experiment with SK-MEL-5 melanoma, in the experiment on SNB-19 CNS and in the experiment on T-47D breast were 31.3 µM, 56.6 µM and 89.6 µM, respectively.

Take `C(/Cc1ccc2c(c1)OCO2)=N\NC1=NCCCCN1`: the TGI in the experiment on EKVX NSCLC, in the experiment with HL-60(TB) leukemia, in the experiment on HT29 colon, with K-562 leukemia, in the experiment on OVCAR-5 ovarian and in the experiment with SF-295 CNS was more than 100 µM each time. In addition, the TGI is 58.2 µM in the experiment on SK-MEL-5 melanoma, more than 100 µM with SNB-19 CNS and more than 100 µM in the experiment with T-47D breast.

The values are drawn from PubChem BioAssay (NCI).
